± gives the expanded uncertainty stated by the source.
Assay: xn = mol fraction of the nth substance listed
Conditions: 100 kPa, Liquid; for speed of sound: Frequency=3 MHz, Sing-around technique in a fixed-path interferometer; for mass density: Vibrating tube method

CCCCn1cc[n+](C)c1C.F[B-](F)(F)F [1-butyl-2,3-dimethylimidazolium tetrafluoroborate] + CCCCn1cc[n+](C)c1.F[B-](F)(F)F
Conditions | mass density, 293.15 K [kg/m3] | mass density, 298.15 K [kg/m3] | speed of sound, 293.15 K [m/s] | speed of sound, 298.15 K [m/s]
x1 = 0.0917 | 1198.6 ± 2.1 | 1195.3 ± 2.1 | 1587.2 ± 1.7 | 1574.1 ± 1.7
x1 = 0.1281 | 1197.1 ± 2.1 | 1194 ± 2 | 1590.7 ± 1.7 | 1577.4 ± 1.7
x1 = 0.1633 | 1195.8 ± 2 | 1193 ± 2 | 1594 ± 1.7 | 1580.6 ± 1.7
x1 = 0.2059 | 1194.4 ± 2 | 1191.8 ± 2 | 1597.8 ± 1.7 | 1584.3 ± 1.7
x1 = 0.2455 | 1193.3 ± 2 | 1190.9 ± 2 | 1601.3 ± 1.7 | 1587.7 ± 1.7
x1 = 0.2967 | 1192.2 ± 2 | 1189.9 ± 2 | 1605.7 ± 1.7 | 1591.9 ± 1.7
x1 = 0.3424 | 1191.3 ± 2 | 1189.2 ± 2 | 1609.5 ± 1.6 | 1595.7 ± 1.6
x1 = 0.3974 | 1190.6 ± 2 | 1188.6 ± 2 | 1613.9 ± 1.6 | 1600.1 ± 1.6
x1 = 0.4496 | 1190.2 ± 2 | 1188.3 ± 2 | 1618.1 ± 1.6 | 1604.1 ± 1.6
x1 = 0.4997 | 1190 ± 2 | 1188.2 ± 2 | 1622 ± 1.6 | 1608 ± 1.6
x1 = 0.5418 | 1190 ± 2 | 1188.2 ± 2 | 1625.2 ± 1.6 | 1611.2 ± 1.6
x1 = 0.5941 | 1190.1 ± 2 | 1188.3 ± 2 | 1629.1 ± 1.6 | 1615.1 ± 1.6
x1 = 0.6398 | 1190.3 ± 2 | 1188.5 ± 2 | 1632.5 ± 1.6 | 1618.5 ± 1.6
x1 = 0.6873 | 1190.6 ± 2 | 1188.9 ± 2 | 1636 ± 1.6 | 1622 ± 1.6
x1 = 0.7388 | 1191 ± 2 | 1189.3 ± 2 | 1639.9 ± 1.6 | 1625.9 ± 1.6
x1 = 0.7963 | 1191.6 ± 2 | 1189.9 ± 2 | 1644.1 ± 1.6 | 1630.1 ± 1.6
x1 = 0.8482 | 1192.1 ± 2 | 1190.4 ± 2 | 1648 ± 1.6 | 1634 ± 1.6
x1 = 0.8903 | 1192.6 ± 2 | 1190.8 ± 2 | 1651.2 ± 1.6 | 1637.2 ± 1.5
x1 = 1 | 1193.5 ± 2 | 1191.8 ± 2 | 1659.7 ± 1.5 | 1645.7 ± 1.5

Reference: the NIST ThermoML archive (doi:10.1016/j.jct.2016.08.010)
